Laboratory results taken from patent publication US10487093B2, “Heterocyclic compounds, in particular 2-oxo-4,4,5,5,6,6,7,7-octahydrobenzoxazole derivatives, and their use as antibacterial compounds” (priority 2016, dated 2019).
≈ marks a conversion by molar mass, not a printed value.

Legend:
[1] = test system: Acinetobacter baumannii NCTC 13420; assay: MIC, broth microdilution (CLSI) versus planktonic bacteria; type: cell-based; conditions: NCTC13420; Acinetobacter baumannii NCTC 13420; 16-20 h; mode of three independent experiments; read-out: MIC, Ab NCTC 13420
[2] = test system: Acinetobacter baumannii ATCC 19606; assay: as above; type: cell-based; conditions: ATCC19606; Acinetobacter baumannii ATCC 19606; 16-20 h; mode of three independent experiments; read-out: MIC, Ab ATCC 19606
[3] = test system: Enterobacter cloacae NCTC 13406; assay: as above; type: cell-based; conditions: NCTC13406; Enterobacter cloacae NCTC 13406; 16-20 h; mode of three independent experiments; read-out: MIC, Ecl NCTC 13406
[4] = test system: Escherichia coli ATCC 25922; assay: as above; type: cell-based; conditions: ATCC25922; Escherichia coli ATCC 25922; 16-20 h; mode of three independent experiments; read-out: MIC, Ec ATCC 25922
[5] = test system: E. coli MG1655; assay: as above; type: cell-based, Escherichia coli; conditions: Escherichia coli, MG1655, read-out: MIC, Ec MG1655 WT
[6] = test system: Haemophilus influenzae ATCC 49247; assay: as above; type: cell-based; conditions: ATCC49247; Haemophilus influenzae ATCC 49247; 16-20 h; mode of three independent experiments; read-out: MIC, Hi ATCC 49247
[7] = test system: Pseudomonas aeruginosa ATCC 27853; assay: as above; type: cell-based; conditions: ATCC27853; Pseudomonas aeruginosa ATCC 27853; 16-20 h; mode of three independent experiments; read-out: MIC, Pa ATCC 27853
[8] = test system: Staphylococcus aureus ATCC 29213; assay: as above; type: cell-based; conditions: ATCC29213; Staphylococcus aureus ATCC 29213; 16-20 h; mode of three independent experiments; read-out: MIC, Sa ATCC 29213
[9] = test system: Streptococcus pneumoniae ATCC 49619; assay: as above; type: cell-based; conditions: ATCC49619; Streptococcus pneumoniae ATCC 49619; 16-20 h; mode of three independent experiments; read-out: MIC, Sp ATCC 49619
[10] = test system: E. coli MG1655 S83L; type: cell-based, Escherichia coli; conditions: compared to the isogenic parent strain E. coli MG1655; S83L mutation on DNA gyrase subunit GyrA
[11] = test system: E. coli MG1655 D87G; type: cell-based, Escherichia coli; conditions: compared to the isogenic parent strain E. coli MG1655; D87G mutation on DNA gyrase subunit GyrA
[12] = test system: human hepatic cell line (HepG2 ATCC HB-8065); assay: Human cell viability assay (CellTiter-Glo); conditions: Homo sapiens, HepG2, 24 h, read-out: IC50 (μg/mL) HepG2
[13] = test system: E. coli NCTC 13476; assay: MIC, broth microdilution (CLSI) versus planktonic bacteria; type: cell-based; conditions: NCTC13476; Escherichia coli NCTC 13476; 16-20 h; mode of three independent experiments; read-out: MIC, Ec NCTC 13476
[14] = test system: E. coli ATCC BAA-2452; assay: as above; type: cell-based; conditions: Escherichia coli ATCC BAA-2452; 16-20 h; mode of three independent experiments; read-out: MIC, Ec ATCC BAA 2452

Row | SMILES | MIC [1] | MIC [2] | MIC [3] | MIC [4] | MIC [5] | MIC [6] | MIC [7] | MIC [8] | MIC [9] | Fold increase in MIC, E. coli MG1655 S83L [10] | Fold increase in MIC, E. coli MG1655 D87G [11] | IC50 [12] | MIC [13] | MIC [14]
1 | O=C1COc2ccc(N3C(=O)O[C@@H]4C[C@@H](NCCn5c(=O)ccc6ccc(Oc7cccnc7)nc65)CC[C@@H]43)nc2N1 [Compound 12, 1-(2-{[(3aS,6S,7aR)-2-oxo-3-{3-oxo-2H,3H,4H-pyrido[3,2-b][1,4]oxazin-6-yl}-octahydro-1,3-benzoxazol-6-yl]amino}ethyl)-7-(pyridin-3-yloxy)-1,2-dihydro-1,8-naphthyridin-2-one] | 1 to 10 µg/mL (≈ 1.76 to 17.6 µM) | 1 to 10 µg/mL (≈ 1.76 to 17.6 µM) | 1 to 10 µg/mL (≈ 1.76 to 17.6 µM) | < 1 µg/mL | < 1 µg/mL | 1 to 10 µg/mL (≈ 1.76 to 17.6 µM) | 1 to 10 µg/mL (≈ 1.76 to 17.6 µM) | < 1 µg/mL | < 1 µg/mL | 1 fold | 1 fold | > 100 µg/mL | – | –
2 | COc1ccc2ccc(=O)n(CCN(CCN)[C@H]3CC[C@H]4[C@@H](C3)OC(=O)N4c3ccc4c(n3)NC(=O)CO4)c2n1 [Compound 13, 1-(2-{[(3aS,6S,7aR)-2-oxo-3-{3-oxo-2H,3H,4H-pyrido[3,2-b][1,4]oxazin-6-yl}-octahydro-1,3-benzoxazol-6-yl](2-aminoethyl)amino}ethyl)-7-methoxy-1,2-dihydro-1,8-naphthyridin-2-one] | 10 to 100 µg/mL (≈ 18.2 to 182 µM) | – | 10 to 100 µg/mL (≈ 18.2 to 182 µM) | 1 to 10 µg/mL (≈ 1.82 to 18.2 µM) | – | 10 to 100 µg/mL (≈ 18.2 to 182 µM) | 1 to 10 µg/mL (≈ 1.82 to 18.2 µM) | < 1 µg/mL | 1 to 10 µg/mL (≈ 1.82 to 18.2 µM) | – | – | > 100 µg/mL | 1 to 10 µg/mL (≈ 1.82 to 18.2 µM) | –
3 | NCCOc1ccc2ccc(=O)n(CCN[C@@H]3CC[C@@H]4[C@@H](C3)OC(=O)N4c3ccc4c(n3)NC(=O)CO4)c2c1 [Compound 23, 1-(2-{[(3aR,6R,7aR)-2-oxo-3-{3-oxo-2H,3H,4H-pyrido[3,2-b][1,4]oxazin-6-yl}-octahydro-1,3-benzoxazol-6-yl]amino}ethyl)-7-(2-aminoethoxy)-1,2-dihydroquinolin-2-one] | 10 to 100 µg/mL (≈ 18.7 to 187 µM) | – | > 100 µg/mL | < 1 µg/mL | 1 to 10 µg/mL (≈ 1.87 to 18.7 µM) | > 100 µg/mL | 1 to 10 µg/mL (≈ 1.87 to 18.7 µM) | < 1 µg/mL | 1 to 10 µg/mL (≈ 1.87 to 18.7 µM) | 0.5 fold | 0.5 fold | > 100 µg/mL | 10 to 100 µg/mL (≈ 18.7 to 187 µM) | 1 to 10 µg/mL (≈ 1.87 to 18.7 µM)
4 | O=C1COc2cnc(N3C(=O)O[C@@H]4C[C@H](NCCn5c(=O)cnc6cc(F)c(F)cc65)CC[C@H]43)nc2N1 [Compound 38, 1-(2-{[(3aR,6R,7aR)-2-oxo-3-{7-oxo-6H,7H,8H-pyrimido[5,4-b][1,4]oxazin-2-yl}-octahydro-1,3-benzoxazol-6-yl]amino}ethyl)-6,7-difluoro-1,2-dihydroquinoxalin-2-one] | 1 to 10 µg/mL (≈ 1.95 to 19.5 µM) | 1 to 10 µg/mL (≈ 1.95 to 19.5 µM) | < 1 µg/mL | < 1 µg/mL | < 1 µg/mL | < 1 µg/mL | 1 to 10 µg/mL (≈ 1.95 to 19.5 µM) | < 1 µg/mL | < 1 µg/mL | 2 fold | – | 10 to 100 µg/mL (≈ 19.5 to 195 µM) | 1 to 10 µg/mL (≈ 1.95 to 19.5 µM) | 1 to 10 µg/mL (≈ 1.95 to 19.5 µM)
5 | COc1cnc2ccc(=O)n(CCN[C@H]3CC[C@H]4[C@H](C3)OC(=O)N4c3ccc4c(n3)NC(=O)CO4)c2c1 [Compound 42, 7-methoxy-1-{2-[(2-oxo-3-{3-oxo-2H,3H,4H-pyrido[3,2-b][1,4]oxazin-6-yl}-octahydro-1,3-benzoxazol-6-yl)amino]ethyl}-1,2-dihydro-1,5-naphthyridin-2-one] | < 1 µg/mL | 1 to 10 µg/mL (≈ 1.97 to 19.7 µM) | < 1 µg/mL | < 1 µg/mL | < 1 µg/mL | < 1 µg/mL | 1 to 10 µg/mL (≈ 1.97 to 19.7 µM) | < 1 µg/mL | < 1 µg/mL | 1 fold | 2 fold | > 100 µg/mL | – | –
6 | N#Cc1cnc2ccc(=O)n(CCCN[C@H]3CC[C@H]4[C@H](C3)OC(=O)N4c3ccc4c(n3)NC(=O)CO4)c2c1 [Compound 82, 5-(3-{[(3aS,6S,7aS)-2-oxo-3-{3-oxo-2H,3H,4H-pyrido[3,2-b][1,4]oxazin-6-yl}-octahydro-1,3-benzoxazol-6-yl]amino}propyl)-6-oxo-5,6-dihydro-1,5-naphthyridine-3-carbonitrile] | 1 to 10 µg/mL (≈ 1.94 to 19.4 µM) | 1 to 10 µg/mL (≈ 1.94 to 19.4 µM) | 1 to 10 µg/mL (≈ 1.94 to 19.4 µM) | < 1 µg/mL | < 1 µg/mL | < 1 µg/mL | 1 to 10 µg/mL (≈ 1.94 to 19.4 µM) | < 1 µg/mL | < 1 µg/mL | 0.5 fold | 1 fold | – | – | 1 to 10 µg/mL (≈ 1.94 to 19.4 µM)
7 | COc1ccc2ccc(=O)n(CCCN[C@H]3CC[C@H]4[C@H](C3)OC(=O)N4c3ccc4c(n3)NC(=O)CO4)c2n1 [Compound 83, 1-(3-{[(3aS,6S,7aS)-2-oxo-3-{3-oxo-2H,3H,4H-pyrido[3,2-b][1,4]oxazin-6-yl}-octahydro-1,3-benzoxazol-6-yl]amino}propyl)-7-methoxy-1,2-dihydro-1,8-naphthyridin-2-one] | < 1 µg/mL | < 1 µg/mL | < 1 µg/mL | < 1 µg/mL | – | < 1 µg/mL | 1 to 10 µg/mL (≈ 1.92 to 19.2 µM) | < 1 µg/mL | < 1 µg/mL | – | – | 10 to 100 µg/mL (≈ 19.2 to 192 µM) | < 1 µg/mL | < 1 µg/mL
8 | O=C1COc2ccc(N3C(=O)O[C@@H]4C[C@H](NCCn5c(=O)cnc6ccc(F)cc65)CC[C@H]43)nc2N1 [Compound 86, 1-(2-{[(3aR,6R,7aR)-2-oxo-3-{3-oxo-2H,3H,4H-pyrido[3,2-b][1,4]oxazin-6-yl}-octahydro-1,3-benzoxazol-6-yl]amino}ethyl)-7-fluoro-1,2-dihydroquinoxalin-2-one] | < 1 µg/mL | < 1 µg/mL | < 1 µg/mL | < 1 µg/mL | – | < 1 µg/mL | 1 to 10 µg/mL (≈ 2.02 to 20.2 µM) | < 1 µg/mL | < 1 µg/mL | – | – | 10 to 100 µg/mL (≈ 20.2 to 202 µM) | < 1 µg/mL | < 1 µg/mL
9 | C=CCOc1ccc2ccc(=O)n(CCN[C@H]3CC[C@H]4[C@H](C3)OC(=O)N4c3ccc4c(n3)NC(=O)CO4)c2c1 [Compound 89, 1-(2-{[(3aS,6S,7aS)-2-oxo-3-{3-oxo-2H,3H,4H-pyrido[3,2-b][1,4]oxazin-6-yl}-octahydro-1,3-benzoxazol-6-yl]amino}ethyl)-7-(prop-2-en-1-yloxy)-1,2-dihydroquinolin-2-one] | < 1 µg/mL | < 1 µg/mL | 1 to 10 µg/mL (≈ 1.88 to 18.8 µM) | < 1 µg/mL | – | 1 to 10 µg/mL (≈ 1.88 to 18.8 µM) | 1 to 10 µg/mL (≈ 1.88 to 18.8 µM) | < 1 µg/mL | < 1 µg/mL | – | – | 10 to 100 µg/mL (≈ 18.8 to 188 µM) | 1 to 10 µg/mL (≈ 1.88 to 18.8 µM) | < 1 µg/mL
